Measurements: patent US9302999B2, “Substituted triazoles as herbicides” (E. I. DU PONT DE NEMOURS AND COMPANY, priority 2012, dated 2016)

Legend:
Type in all cases: in vivo
[1] = tested on: Catchweed Bedstraw (GALAP, Galium aparine); assay: Test H post-emergence, alone and in combination: Catchweed Bedstraw
Excerpt: (§1) Seeds of plant species selected from wheat (TRZAW, Triticum aestivum), barley (HORBW, Hordeum vulgare), Kochia (KCHSC, Kochia caoparia) blackgrass (ALOMY, Alopecurus myosuroides), canarygrass (PHAMI, Phalaris minor), Italian ryegrass (LOLMU, Lolium multiflorum) common lambsquarter (CHEAL, Chenopodium album), pigweed (AMARE, Amaranthus retroflexus), Common Chickweed (STEME, Stellaria media), Russian thistle (SASKR, Salsola iberica), Wild Buckwheat (POLCO, Polygonum convolvulus), Catchweed Bedstraw (GALAP, Galium aparine), Mustard (SINAR, Sinapisar arvensis), Henbit Deadnettle (LAMAM, Lamium amplexicaule), Wild Radish (RAPRA, Raphanus raphanistrum), Field Poppy (PAPRH, Papaver rhoeas), Field Violet (VIOAR, Viola arvennsis), Scentless Chamomile (MATIN Matricaria inodora) were planted into soil and treated post-emergence with test chemicals formulated in a non-phytotoxic solvent mixture. Plants were grown in a greenhouse using supplemental lighting to maintain a photoperiod of approximately 14 hours; daytime and nighttime temperatures were approximately 23°-29° and 16°-19° Celsius, respectively. Balanced fertilizer was applied through the watering system. Treated plants and controls were maintained in a greenhouse for 20 days, after which time all species were compared to controls and visually evaluated. Plant response ratings were calculated as the mean of three replicates (unless otherwise indicated), are summarized in Table G, and are based on a scale of 0 to 100 where 0 is no effect and 100 is complete control. A dash (-) response means no test result.

[2] = tested on: Common Chickweed (STEME, Stellaria media); assay: Test H post-emergence, alone and in combination: Common Chickweed
Excerpt: as §1

[3] = tested on: Russian thistle (SASKR, Salsola iberica); assay: Test H post-emergence, alone and in combination: Russian thistle
Excerpt: as §1

[4] = tested on: Field Violet (VIOAR, Viola arvennsis); assay: Test H post-emergence, alone and in combination: Field Violet
Excerpt: as §1

[5] = tested on: common lambsquarter (CHEAL, Chenopodium album); assay: Test H post-emergence, alone and in combination: common lambsquarter
Excerpt: as §1

[6] = tested on: Wild Buckwheat (POLCO, Polygonum convolvulus); assay: Test H post-emergence, alone and in combination: Wild Buckwheat
Excerpt: as §1

[7] = tested on: pigweed (AMARE, Amaranthus retroflexus); assay: Test H post-emergence, alone and in combination: pigweed
Excerpt: as §1

[8] = tested on: Kochia (KCHSC, Kochia caoparia); assay: Test H post-emergence, alone and in combination: Kochia
Excerpt: as §1

[9] = tested on: beggarticks (hairy beggarticks, Bidens pilosa); assay: Test E pre-/postemergence: beggarticks; details: Postemergence, scale 0 to 100
Excerpt: (§2) Seeds of plant species selected from corn (Zea mays), soybean (Glycine max), velvetleaf (Abutilon theophrasti), lambsquarters (Chenopodium album), poinsettia, wild (wild poinsettia, Euphorbia heterophylla), pigweed, palmer (palmer pigweed, Amaranthus palmeri), waterhemp (common waterhemp, Amaranthus rudis), smartweed (ladysthumb smartweed, Polygonum persicaria), surinam grass (Brachiaria decumbens), crabgrass, large (large crabgrass, Digitaria sanguinalis), crabgrass, Brazil (Brazilian crabgrass, Digitaria horizontalis), panicum, fall (fall panicum, Panicum dichotomiflorum), foxtail, giant (giant foxtail, Setaria faberii), foxtail, green (green foxtail, Setaria viridis), goosegrass (Eleusine indica), johnsongrass (Sorghum halepense), ragweed (common ragweed, Ambrosia elation), barnyardgrass (Echinochloa crus-galli), sandbur (southern sandbur, Cenchrus echinatus), arrowleaf sida (Sida rhombifolia), ryegrass, Italian (Italian ryegrass, Lolium multiflorum), dayflower, (VA) (Virginia dayflower, Commelina virginica), field bindweed (Convolvulus arvensis), cocklebur (common cocklebur, Xanthium strumarium), morningglory (Ipomoea coccinea), nightshade (eastern black nightshade, Solanum ptycanthum), kochia (Kochia scoparia), nutsedge, yellow (yellow nutsedge, Cyperus esculentus) and beggarticks (hairy beggarticks, Bidens pilosa) were planted into a silt loam soil and treated preemergence with test chemicals formulated in a non-phytotoxic solvent mixture which included a surfactant. At the same time, plants selected from these crop and weed species were planted in pots containing a growing medium comprising spaghnum peat moss, vermiculite, wetting agent and starter nutrients and treated with postemergence applications of some of the test chemicals formulated in the same manner. Plants ranged in height from 2 to 18 cm for postemergence treatments (1- to 4-leaf stage).
(§3) Treated plants and controls were maintained in a greenhouse for 14 to 21 days, after which time all species were compared to controls and visually evaluated. Plant response ratings, summarized in Table E, are based on a scale of 0 to 100 where 0 is no effect and 100 is complete control. A dash (-) response means no test result.

[10] = tested on: smartweed (ladysthumb smartweed, Polygonum persicaria); assay: Test E pre-/postemergence: smartweed; details: Postemergence, scale 0 to 100
Excerpt: as §2, §3

Cc1nn(-c2ccc(F)cc2)nc1Oc1ccnc(C(F)(F)F)c1 [Compound 129, 4-[[2-(4-fluorophenyl)-5-methyl-2H-1,2,3-triazol-4-yl]oxy]-2-(trifluoromethyl)pyridine]
GALAP plant response ([1]; Rate 31): 65
GALAP plant response ([1]; Rate 62): 60
GALAP plant response ([1]; Rate 125): 70
STEME plant response ([2]; Rate 31): 50
STEME plant response ([2]; Rate 62): 70
STEME plant response ([2]; Rate 125): 80
SASKR plant response ([3]; Rate 31): 65
SASKR plant response ([3]; Rate 62): 80
SASKR plant response ([3]; Rate 125): 90
VIOAR plant response ([4]; Rate 31): 60
VIOAR plant response ([4]; Rate 62): 75
VIOAR plant response ([4]; Rate 125): 90
CHEAL plant response ([5]; Rate 31): 85
CHEAL plant response ([5]; Rate 62): 80
CHEAL plant response ([5]; Rate 125): 90
POLCO plant response ([6]; Rate 31): 30
POLCO plant response ([6]; Rate 62): 25
POLCO plant response ([6]; Rate 125): 70
AMARI plant response ([7]; Rate 31): 80
AMARI plant response ([7]; Rate 62): 90
AMARI plant response ([7]; Rate 125): 95
KCHSC plant response ([8]; Rate 31): 80
KCHSC plant response ([8]; Rate 62): 85
KCHSC plant response ([8]; Rate 125): 95

Cc1nn(-c2ccc(C(F)(F)F)cc2)nc1Cc1ccnc(C(F)(F)F)c1 [Compound 47, 4-[[5-methyl-2-[4-(trifluoromethyl)phenyl]-2H-1,2,3-triazol-4-yl]methyl]-2-(trifluoromethyl)pyridine]
Plant response rating: Beggarticks ([9]; 250 g ai/ha): 50
Plant response rating: Beggarticks ([9]; 16 g ai/ha): 30
Plant response rating: Beggarticks ([9]; 31 g ai/ha): 30
Plant response rating: Beggarticks ([9]; 62 g ai/ha): 40
Plant response rating: Beggarticks ([9]; 125 g ai/ha): 50
Plant response rating: Smartweed ([10]; 250 g ai/ha): 85
Plant response rating: Smartweed ([10]; 16 g ai/ha): 30
Plant response rating: Smartweed ([10]; 31 g ai/ha): 40
Plant response rating: Smartweed ([10]; 62 g ai/ha): 50
Plant response rating: Smartweed ([10]; 125 g ai/ha): 80
